Assay [1] deals with T1, cb1a cell KARs (kainate receptors of cb1a Off bipolar cells).
T1 construct: gene GRIK1
As to conditions: desensitization by glutamate; supplement only.

Assay [2] shares this test system. As to conditions: mean of n = 6 somas (Hill n 1.11); 35 µM GYKI 53655 blocks AMPA receptors; pH 7.4; 32-33 °C.
Assay [3] has as its system T2, cone glutamate transporter (TBOA-sensitive; EAAT5 immunolabelled at cone terminal).
T2 construct: gene SLC1A7
The note with it: read-out: steady state EC50.

For `N[C@@H](CCC(=O)O)C(=O)O` [glutamate], the IC50 in assay [1] was 30.4 ± 10.2 µM. Further, the values for the EC50 in assay [2] and in assay [3] were 1400 ± 160 µM and 0.71 µM, respectively.

Broadly, the IC50 is the concentration needed to halve the response being measured. Broadly, the EC50 is the concentration giving half of the maximal effect.

Values taken from publication PMC10276006, “Mechanisms of simultaneous linear and nonlinear computations at the mammalian cone photoreceptor synapse” (Nature Communications, 2023).
